Laboratory results as given in patent US20090209528A1, “SUBSTITUTED TETRAHYDROISOQUINOLINE COMPOUND, THEIR PREPARATION AND USE IN MEDICAMENTS” (LABORATORIOS DEL DR. ESTEVE S.A., priority 2006, published 2009).
Where a name gives a salt, the structure may show the parent alone.

Biological target: T1, 5HT6-human recombinant receptor (Homo sapiens, UniProt P50406)
T1 construct: purchased Receptor Biology; host or cells: HEK-293 cell membranes
Experiment: Binding to serotonin receptor 5-HT6 ([3H]-LSD displacement)
Conditions: radioligand [3H]-LSD 2.7 nM; for inhibition at 0.01 µM / inhibition at 0.1 µM: 1 h; for Ki: membranes of HEK-293 cells expressing the receptor, 60 min, 37° C.
Protocol: Cell membranes of HEK-293 cells expressing the 5HT6-human recombinant receptor were supplied by Receptor Biology. In said membranes the receptor concentration is 2.18 pmol/mg protein and the protein concentration is 9.17 mg/ml. The experimental protocol follows the method of B. L. Roth et al. [B. L. Roth, S. C. Craigo, M. S. Choudhary, A. Uluer, F. J. Monsma, Y. Shen, H. Y. Meltzer, D. R. Sibley: Binding of Typical and Atypical Antipsychotic Agents to 5-Hydroxytryptamine-6 and Hydroxytryptamine-7 Receptors. The Journal of Pharmacology and Experimental Therapeutics, 1994, 268, 1403] with the following slight changes. The respective part of the literature description is hereby incorporated by reference and forms part of the disclosure.
The commercial membrane is diluted (1:40 dilution) with the binding buffer: 50 mM Tris-HCl, 10 mM MgCl2, 0.5 mM EDTA (pH 7.4). The radioligand used is [^3H]-LSD at a concentration of 2.7 nM with a final volume of 200 μl. Incubation is initiated by adding 100 μl of membrane suspension, (≈22.9 μg membrane protein), and is prolonged for 60 minutes at a temperature of 37° C. The incubation is ended by fast filtration in a Brandel Cell Harvester through fiber glass filters made by Schleicher & Schuell GF 3362 pretreated with a solution of polyethylenimine at 0.5%. The filters are washed three times with three milliliters of buffer Tris-HCl 50 mM pH 7.4. The filters are transferred to flasks and 5 ml of Ecoscint H liquid scintillation cocktail are added to each flask. The flasks are allowed to reach equilibrium for several hours before counting with a Wallac Winspectral 1414 scintillation counter. Non-specific binding is determined in the presence of 100 μM of serotonin. Tests were made in triplicate. The inhibition constants (Ki, nM) were calculated by non-linear regression analysis using the program EBDA/LIGAND described in Munson and Rodbard, Analytical Biochemistry, 1980, 107, 220, the respective part of which is hereby incorporated by reference and forms part of the disclosure.

T1 sequence (P50406 whole entry): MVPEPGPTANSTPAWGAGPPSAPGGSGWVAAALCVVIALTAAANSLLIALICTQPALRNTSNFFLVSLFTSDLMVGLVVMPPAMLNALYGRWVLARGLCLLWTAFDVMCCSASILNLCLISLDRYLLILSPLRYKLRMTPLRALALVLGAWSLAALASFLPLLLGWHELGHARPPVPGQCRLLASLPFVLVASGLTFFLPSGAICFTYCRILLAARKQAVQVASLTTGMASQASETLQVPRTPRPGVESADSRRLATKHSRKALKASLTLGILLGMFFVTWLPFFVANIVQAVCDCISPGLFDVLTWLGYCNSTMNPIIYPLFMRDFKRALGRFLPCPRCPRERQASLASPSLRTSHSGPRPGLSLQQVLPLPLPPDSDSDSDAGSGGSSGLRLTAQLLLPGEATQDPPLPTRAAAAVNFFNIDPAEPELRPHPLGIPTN

Row | Structure (SMILES) | inhibition at 0.01 µM (compound at 10 nM) | inhibition at 0.1 µM (compound at 100 nM) | Ki | Binding % [10 nM] (compound at 10 nM) | Binding % [100 nM] (compound at 100 nM)
1 | Cc1ccc(S(=O)(=O)Nc2ccc3c(c2)CCNC3)c2ccccc12 [Example 6, 4-Methyl-naphthalene-1-sulfonic acid (1,2,3,4-tetrahydro-isoquinolin-6-yl)amide hydrochloride] | 60.1% | 88.8% | 14.5 ± 3.8 nM |  | 
2 | CC(C)(C)OC(=O)N1CCc2cc(NS(=O)(=O)c3ccc4ccccc4c3)ccc2C1 [Example 16, 6-(Naphthalene-2-sulfonylamino)-3,4-dihydro-1H-isoquinoline-2-carboxylic acid tert-butyl ester] | 5.6% | 10.6% |  |  | 
3 | CC(C)(C)OC(=O)N1CCc2cc(NS(=O)(=O)c3cccnc3)ccc2C1 [Example 18, 6-(Pyridine-3-sulfonylamino)-3,4-dihydro-1H-isoquinoline-2-carboxylic acid tert-butyl ester] | -0.8% | 6.8% |  |  | 
4 | CN1CCc2cc(NS(=O)(=O)c3cccc4ccccc34)ccc2C1 [Example 3, Naphthalene-1-sulfonic acid (2-methyl-1,2,3,4-tetrahydro-isoquinolin-6-yl)-amide hydrochloride] | 3.9% | 18.2% |  |  | 
5 | Cc1c(S(=O)(=O)Nc2ccc3c(c2)CCNC3)sc2ccc(Cl)cc12 [Example 4, 5-Chloro-3-methyl-benzo[b]thiophene-2-sulfonic acid (1,2,3,4-tetrahydro-isoqui-nolin-6-yl)-amide hydrochloride] | 27.3% | 71.1% |  |  | 
6 | Cc1ccc(S(=O)(=O)Nc2ccc3c(c2)CCN(C)C3)c2ccccc12 [Example 7, 4-Methyl-naphthalene-1-sulfonic acid (2-methyl-1,2,3,4-tetrahydro-isoqui-nolin-6-yl)amide hydrochloride] | 80.3% | 92.2% | 13.3 nM |  | 

Results, then the compound that gave them:

Row | inhibition at 0.01 µM (compound at 10 nM) | inhibition at 0.1 µM (compound at 100 nM) | Ki | Binding % [10 nM] (compound at 10 nM) | Binding % [100 nM] (compound at 100 nM) | Structure (SMILES)
7 | 81% | 91.9% | 10.7 ± 4.8 nM |  |  | O=S(=O)(Nc1ccc2c(c1)CNCC2)c1c(Cl)nc2sccn12 [Example 54, 6-Chloro-imidazo[2,1-b]thiazole-5-sulfonic acid (1,2,3,4-tetrahydro-iso-quinolin-7-yl)-amide hydrochloride]
8 | 89% | 86.4% | 2.4 ± 0.5 nM |  |  | O=S(=O)(Nc1ccc2c(c1)CNCC2)c1ccccc1-c1ccccc1 [Example 62, Biphenyl-2-sulfonic acid (1,2,3,4-tetrahydro-isoquinolin-7-yl)-amide hydrochloride]
9 |  |  | 8.7 ± 0.4 nM | 52.9% | 88.2% | O=S(=O)(Nc1ccc2c(c1)CCNC2)c1ccc2ccccc2c1 [Example 153, Naphthalene-2-sulfonic acid (1,2,3,4-tetrahydro-isoquinolin-6-yl)-amide]
10 | 72.3% | 85.5% | 5.7 nM |  |  | O=S(=O)(Nc1ccc2c(c1)CCNC2)c1ccc(Cl)c2ccccc12 [Example 31, 4-Chloro-naphthalene-1-sulfonic acid (1,2,3,4-tetrahydro-isoquinolin-6-yl)-amide hydrochloride]
11 | 65.7% | 85.1% | 39.7 ± 7.4 nM |  |  | O=S(=O)(Nc1ccc2c(c1)CNCC2)c1cccc2c(Cl)cccc12 [Example 154, 5-Chloro-naphthalene-1-sulfonic acid (1,2,3,4-tetrahydro-isoquinolin-7-yl)-amide Hydrochloride]
12 | 74.2% | 90% | 2.3 ± 0.2 nM |  |  | CN1CCc2cc(NS(=O)(=O)c3c(Cl)nc4sccn34)ccc2C1 [Example 19, 6-Chloro-imidazo[2,1-b]thiazole-5-sulfonic acid (2-methyl-1,2,3,4tetrahydro-isoquinolin-6-yl)-amide hydrochloride]
13 | 45.5% | 64.7% | 54.6 nM |  |  | O=S(=O)(Nc1ccc2c(c1)CNCC2)c1cccc2nonc12 [Example 72, Benzo[1,2,5]oxadiazole-4-sulfonic acid (1,2,3,4-tetrahydro-isoquinolin-7-yl)-amide hydrochloride]
